Activity calls are given as the source filed them. No cut-off for these calls is given here.
What was measured:
Colon 26 [1] = assay: Antitumor activity against mouse Colon 26 cells allografted in BALB/c mouse assessed as tumor growth inhibition at 10 umol/kg, iv pretreated for 3 hrs followed by light-emitting diode irradiation at 660 nm wavelength measured after 3 to 7 days by photodynamic therapy; format: functional, organism-based; details: tested as the 10B-labelled form
Zone of skin = assay: Biodistribution in BALB/c mouse skin allografted with mouse Colon 26 cells at 10 umol/kg, iv measured at 24 hrs by spectrofluorometric analysis; format: ADME, organism-based; details: in vivo
Muscle tissue = assay: Biodistribution in BALB/c mouse muscle allografted with mouse Colon 26 cells at 10 umol/kg, iv measured at 24 hrs by spectrofluorometric analysis; format: ADME, organism-based; details: in vivo
Spleen = assay: Biodistribution in BALB/c mouse spleen allografted with mouse Colon 26 cells at 10 umol/kg, iv measured at 24 hrs by spectrofluorometric analysis; format: ADME, organism-based; details: in vivo
Colon 26 [2] = assay: Cytotoxicity against mouse Colon 26 cells assessed as cell viability at 1 to 10 uM after 24 hrs by WST-8 assay; format: cell-based; details: colon 26, 24 h
Tumour [3] = assay: Biodistribution in tumor of BALB/c mouse allografted with mouse Colon 26 cells at 10 umol/kg, iv measured at 3 hrs by spectrofluorometric analysis; format: ADME, organism-based; details: in vivo
Liver [4] = assay: Biodistribution in BALB/c mouse liver allografted with mouse Colon 26 cells at 10 umol/kg, iv measured at 24 hrs by spectrofluorometric analysis; format: ADME, organism-based; details: in vivo
Kidney = assay: Biodistribution in BALB/c mouse kidney allografted with mouse Colon 26 cells at 10 umol/kg, iv measured at 24 hrs by spectrofluorometric analysis; format: ADME, organism-based; details: in vivo
Serum [5] = assay: Biodistribution in BALB/c mouse serum allografted with mouse Colon 26 cells at 10 umol/kg, iv measured at 3 hrs by spectrofluorometric analysis; format: ADME, organism-based; details: in vivo
Serum [6] = assay: Biodistribution in BALB/c mouse serum allografted with mouse Colon 26 cells at 10 umol/kg, iv measured at 1 hr by spectrofluorometric analysis; format: ADME, organism-based; details: in vivo
[7] = Solubility of the compound in water; format: physicochemical
Serum [8] = assay: Biodistribution in BALB/c mouse serum allografted with mouse Colon 26 cells at 10 umol/kg, iv measured at 24 hrs by spectrofluorometric analysis; format: ADME, organism-based; details: in vivo
Brain = assay: Biodistribution in BALB/c mouse brain allografted with mouse Colon 26 cells at 10 umol/kg, iv measured at 24 hrs by spectrofluorometric analysis; format: ADME, organism-based; details: in vivo
Serum [9] = assay: Biodistribution in BALB/c mouse serum allografted with mouse Colon 26 cells at 10 umol/kg, iv measured at 6 to 12 hrs by spectrofluorometric analysis; format: ADME, organism-based; details: in vivo
Lung = assay: Biodistribution in BALB/c mouse lung allografted with mouse Colon 26 cells at 10 umol/kg, iv measured at 24 hrs by spectrofluorometric analysis; format: ADME, organism-based; details: in vivo
Liver [10] = assay: Biodistribution in BALB/c mouse liver allografted with mouse Colon 26 cells at 10 umol/kg, iv measured at 1 to 12 hrs by spectrofluorometric analysis; format: ADME, organism-based; details: in vivo
Tumour [11] = assay: Biodistribution in tumor of BALB/c mouse allografted with mouse Colon 26 cells at 10 umol/kg, iv measured at 12 hrs by spectrofluorometric analysis; format: ADME, organism-based; details: in vivo

Row | SMILES | TGI (Colon 26 [1]) | Drug uptake (Zone of skin) | Drug uptake (Muscle tissue) | Drug uptake (Spleen) | Activity (Colon 26 [2]) | Drug uptake (Tumour [3]) [pmol/mg] | Drug uptake (Liver [4]) | Drug uptake (Kidney) | Drug uptake (Serum [5]) [pmol/mg] | Drug uptake (Serum [6]) [pmol/mg] | solubility [7] [µg/mL] | Drug uptake (Serum [8]) | Drug uptake (Brain) | Drug uptake (Serum [9]) | Drug uptake (Lung) | Drug uptake (Liver [10]) | Drug uptake (Tumour [11]) [pmol/mg]
1 | C=Cc1c(C)c2cc3nc(cc4[nH]c(cc5nc(cc1[nH]2)C(C)(O)/C5=C\C=N\OCC)c(C)c4CCC(=O)NC(Cc1ccc(B(O)O)cc1)C(=O)O)C(CCC(=O)NC(Cc1ccc(B(O)O)cc1)C(=O)O)=C3C (configuration not stated) | Active |  |  |  |  |  |  |  |  |  |  |  |  |  |  |  | 
2 | C=Cc1c(C)c2cc3nc(cc4[nH]c(cc5nc(cc1[nH]2)C(C)(O)/C5=C\C=N\OCC)c(C)c4CCC(=O)NC(Cc1ccc([10B](O)O)cc1)C(=O)[O-])C(CCC(=O)NC(Cc1ccc([10B](O)O)cc1)C(=O)[O-])=C3C.[Na+].[Na+] (configuration not stated) |  | Active | Active | Active | Non-toxic | 0.27 | Active | Active | 32.2 | 7.6 | 100 | Not Active | Active | Active | Active | Active | 
3 | C=Cc1c(C)c2cc3nc(cc4[nH]c(cc5nc(cc1[nH]2)C(C)(O)/C5=C\C=N\OCCCNC(=O)/C=C/c1ccc([10B](O)O)cc1)c(C)c4CCC(=O)N(CC(=O)[O-])CC(=O)[O-])C(CCC(=O)N(CC(=O)[O-])CC(=O)[O-])=C3C.[Na+].[Na+].[Na+].[Na+] (configuration not stated) |  | Active | Active | Active | Non-toxic |  | Active | Active |  |  | 100 | Not Active | Active |  | Active |  | 0.21

Reference: ChEMBL document CHEMBL3120146, “Synthesis and biological evaluation of new boron-containing chlorin derivatives as agents for both photodynamic therapy and boron neutron capture therapy of cancer” (Bioorg Med Chem Lett, 2014)
